Read-outs that look alike come from different tables or passages of the source.
Experiments:
[1] = Pharmacokinetic test in cynomolgus monkeys; format: in vivo; details: IV 2 mg/kg
Description: The control compound 2 and compound 19 were formulated into 1 mg/mL solution in 10% DMSO/90% PBS. Cynomolgus monkeys were obtained from Suzhou Leo Bio Technology Co., Ltd. The control compound 2 and compound 19 were administered intravenously at 2 mg/kg, respectively. The blood collected before administration was recorded as zero point. Then 1 mL of blood was collected at eight time points: 0.083, 0.15, 0.5, 1.0 2.0, 4.0, 8.0, and 24.0, respectively. 1 mL of the collected whole blood was placed in a labeled EDTA-2K anticoagulant tube. After gently inverting up and down to fully mix the anticoagulant (EDTA-2K) with the blood, it was immediately placed in wet ice and centrifuged within 30 minutes to separate the plasma. The centrifugation conditions were set to 4° C., 2200 g, and 6 min. The plasma separated after centrifugation was placed in a labeled EP tube, and the content of compound 19 and control compound 2 in the plasma samples at different time points were detected and analyzed. There were 3 male cynomolgus monkeys in each group.

[2] = system: human plasma protein; experiment: Binding rate test of compounds and human plasma protein (equilibrium dialysis); format: in vitro ADME; details: 1 μM, equilibrium dialysis 6 hours, 37° C.
Procedure, shortened: (§1)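 Equilibrium dialysis of compound at 1 μM final in human plasma against 100 mM phosphate buffer with 0.002% Tween 80, shaken 6 hours at 37° C. Both sides quantified after acetonitrile/internal-standard precipitation. Binding calculated as 1 − free fraction, where free fraction = buffer/plasma concentration ratio.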

[3] = system: MIApaca/FG2 cells; experiment: EC50 assay of small molecule activated γδ T cells to kill MIApaca/FG2 tumor cells (3-fold dilution protocol); format: cell-based; details: 0.05-100 nM, read-out: MIApaca killing (EC50)
Description: γδT cells and MIApaca/FG2 tumor cell lines were expanded and cultured in vitro. MIApaca/FG2 cells were digested, and the cells were counted and resuspended in DMEM complete medium, the density of the cell suspension was adjusted and added into a 96-well plate at 5×10^3 cells/100 […]/well for overnight incubation. On the next day, the test compound and the control compound were diluted at a 3-fold ratio with DMSO, and 4 μL of the diluted compound was added to 96 μL of culture medium for 25-fold dilution. 5 μL of 25-fold diluted compound was transferred to the corresponding well which had been plated with tumor cells, and the actual detection concentration was in the range of 0.05-100 nM. γδT cells were resuspended in γδT complete medium, and the density of the cell suspension was adjusted according to the effector-target ratio of E:T=2:1, and then the cell was added to the corresponding well at 1×10^4 cells/100 μL/well. After co-culture at 37° C., 5% CO2 for 20 hours, the cells were centrifuged. The supernatant was removed, and 50 μL of cell lysate containing fluorescein substrate was added to each well. After standing for 18 minutes in the dark, the signal of chemiluminescence was detected. The EC50 value was calculated by four-parameter fitting, with the corresponding signal value of the well with only tumor cells as the minimum killing value, and the corresponding value of the well without tumor cells as the maximum killing value. The killing data of MIApaca/FG2 cells is as follows: […]

[4] = system: MV4-11-luc cells; experiment: EC50 assay of small molecule activated γδ T cells to kill MV4-11-luc tumor cells; format: cell-based; details: γδT cells + MV4-11-luc, E:T=2:1, co-culture 20 hours, 0.05-100 nM, read-out: MV4-11 killing (EC50)
Description: γδT cells and MV4-11-luc tumor cell lines were expanded and cultured in vitro. The MV4-11-luc cells were digested, and the cells were counted and resuspended in IMDM complete medium, the density of the cell suspension was adjusted and added into a 96-well plate at 5×10^3 cells/100 μL/well for overnight incubation. On the next day, the test compound and the control compound were diluted at a 3-fold ratio with DMSO, and 4 μL of the diluted compound was added to 96 μL of culture medium for 25-fold dilution. 5 μL of 25-fold diluted compound was transferred to the corresponding well which had been plated with tumor cells, and the actual detection concentration was in the range of 0.05-100 nM. γδT cells were resuspended in γδT complete medium, and the density of the cell suspension was adjusted according to the effector-target ratio of E:T=2:1, and then the cell was added to the corresponding well at 1×10^4 cells/100 μL/well. After co-culture at 37° C., 5% CO2 for 20 hours, the cells were centrifuged. […] After standing for 18 minutes in the dark, the signal of chemiluminescence was detected. The EC50 value was calculated by four-parameter fitting, with the corresponding signal value of the well with only tumor cells as the minimum killing value, and the corresponding value of the well without tumor cells as the maximum killing value.

[5] = Binding rate test of compounds and human plasma protein (equilibrium dialysis); format: in vitro ADME; details: human plasma, equilibrium dialysis 6 hours, 37° C.
Procedure, shortened: as §1

SMILES	Plasma concentration of the unchanged drug ([1]; 5 min) [ng/mL]	Plasma concentration of the unchanged drug ([1]; 9 min) [ng/mL]	Plasma concentration of the unchanged drug ([1]; 30 min) [ng/mL]	Plasma concentration of the unchanged drug ([1]; 1 h) [ng/mL]	AUC0-t (AUClast) ([1]; average) [ng·h/mL]	AUC0-t/AUC0-inf ([1]; average)	Cl (Cl_obs) ([1]; average) [mL/min/kg]	human plasma protein binding rate [2] [%]	EC50 ([3]; γδT cells + MIApaca/FG2, E:T=2:1, co-culture 20 hours) [pM]	EC50 [4] [pM]	fraction unbound at 6 h, 1 μM [5]	EC50 ([3]; Homo sapiens, MIA PaCa-2, γδT cells + MIApaca/FG2, E:T=2:1, co-culture 20 hours) [pM]	EC50 ([4]; Homo sapiens) [pM]
C/C(=C\CC[P@@](=O)(N[C@@H](C)C(=O)O[C@@H]1CCOC1)Oc1ccccc1)CO [Compound 19, (R)-tetrahydrofuran-3-yl ((S)-((R)-5-hydroxy-4-methylpent-3-en-1-yl)(phenoxy)phosphoryl)-L-alaninate]	1370	878	139	12	426	0.959	76.3	64.6	280	4			
C/C(=C\CCP(=O)(N[C@@H](C)C(=O)OC(C)C)Oc1ccccc1)CO (stereo partly drawn) [Control compound 1, Isopropyl (((E)-5-hydroxy-4-methylpent-3-en-1-yl)(phenoxy)phosphoryl)-L-alaninate, reference compound]											0.073	530	50
